In data set [1] the test system is L5178Y cells. Put plainly: Induction of apoptosis (DNA ladder) in L5178Y cells after PDT. Type of data set: cell-based, Mouse. As to conditions: for C × F Ld90, Minimum Demonstrated Condition to Induce Apoptosis: product of concentration and fluence.
Method: The aliquots were plated in sufficient numbers to produce 50-200 colonies. The dishes were kept in an incubator at 37° C. in an atmosphere of 5% CO2 and 95% air for 10-14 days to allow viable cells to form colonies. Colonies were counted by eye. […] The plating efficiencies of the treated cells are normalized to the plating efficiencies of control cells in each experiment.
Cells were treated with various concentrations of the compounds listed in the table and various light fluences. DNA gels were prepared and examined for the characteristic “ladder” pattern of DNA fragments. For each Pc, the minimum total PDT dose tested (calculated as the product of the minimum phthalocyanine concentration and the minimum fluence) which produced visible DNA fragments is recorded. […] PcXVIII was also added at 0.5 and 1.0 μM.
The subject of data set [2] is Chinese hamster V79-379 lung fibroblasts. Put plainly: Uptake of phthalocyanines into V79 cells. As to conditions: for n Moles/10^6 Cells/μM (composite uptake value): V79 cells, average of all data, asterisk: listed value is for 1 μM, average would be higher. The protocol:
Chinese hamster V79-379 lung fibroblasts were grown in monolayer culture in McCoy's 5A medium (Gibco Laboratories, Grand Island, N.Y.) augmented with 10% calf serum and buffered with 20 mM HEPES (pH 7.4).
Total uptake was determined by scraping the phthalocyanine-treated monolayer, collecting the cells on a glass-fiber filter, and extracting the phthalocyanine in ethanol, as previously described by Ramakrishnan, et al., 1989. (Ramakrishnan, N., M. E. Clay, M. F. Horng, A. R. Antunez, & H. H. Evans, “DNA Lesions and DNA Degradation in Mouse Lymphoma L5178Y Cells After Photodynamic Treatment Sensitized by Chloroaluminum Phthalocyanine”, Photochem. Photobiol, in press, 1989). The amount of drug was determined by absorption at 674 nm and expressed relative to the number of cells, as measured in a Coulter cell counter on an aliquot of the cell population. Controls included cells not treated with drug, medium alone, and drug-containing medium without cells.
The cells were treated with 1 μM AlPcCl (from Eastman Kodak, Rochester, N.Y.) or with phthalocyanine compositions I-VI (0.5-1.0 μM final concentration in the medium) for 18 hours by adding the appropriate volume of a 1.0 mM stock solution in dimethylformamide (DMF) to the culture medium. The growth medium was replaced with 4 mL Hank's balanced salt solution (HBSS), and the cells were irradiated. The light source was a 500 W tungsten-halogen lamp located approximately 29 inches below the surface of a glass exposure tray. The visible light administered to the cells was filtered to allow passage of only that portion of the visible spectrum above 600 nm (Lee Primary red filter No. 106, Vincent Lighting, Cleveland, Ohio). The fluence rate was approximately 0.074 kJ/m^2/s at the level of the cell monolayer.
V79 cells Chinese hamster lung fibroblasts were cultured using the cell culture methods described above. The phthalocyanines listed in table 2 were added to the cultures typically at concentrations of 1 μM, 2 μM, and/or 4 μM and incubated for 18 hours, after which aliquots of the cells were counted and other aliquots were collected on a glass fiber filter. When the filters were dry, the phthalocyanines were extracted into ethanol and the absorption determined at the peak wavelength, usually 668 nm. Values were converted to nmoles taken up by 10^6 cells, using an extinction coefficient of 2.93×10^5.

The subject of data set [3] is RIF-1 (radiation-induced fibrosarcoma) tumors. Put plainly: PDT of RIF-1 implanted tumors. Type of data set: in vivo, C3H/HeN mice. Further details: key to Tumor Responses at 24 hours: complete: no evidence of any tumor mass in any animal; only the scar from the photodynamic therapy was evident.; near complete: evidence of any tumor mass in four or five animals; only some tumor mass in one or two animals.; substantial: a significant tumor shrinkage occurred in all animals. In some animals the tumor response was complete, yet in others the response was not complete.; moderate: some tumor shrinkage was evident in some animals. In animals with some tumor shrinkage, scar formation was evident.; slight: some tumor decrease occurred in one or two mice. As to conditions: 675 nm; for Doubling Time of Initial Tumor Volume after PDT: controls 4 days. The method, then:
The relative effectiveness at reducing tumor volume of selected phthalocyanine compounds at a given dosage was compared in vivo. RIF-1, i.e., radiation-induced fibrosarcoma, tumors were implanted into the backs of C3H/HeN mice. One tumor was implanted per mouse. Each of the phthalocyanine compounds listed in Table 7 was sonicated and vortexed in corn oil to produce a suspension. When the tumors reached […] in diameter and 2-3 mm in thickness, each mouse received 1 mg/kg in 0.1 mL of the corn oil, of the phthalocyanine suspension. For comparison, select mice received a conventional photosensitizer; either 5 mg/kg of chloroaluminum phthalocyanine tetrasulfonate, herein also referred to as “AlPcTS” in phosphate buffered saline or 5 mg/kg of Photofrin®-II in 5% dextrose. Twenty-four hours after the photosensitizers were administered, the tumors were irradiated with visible radiation delivered by an argon-pumped dye laser. The mice that received a phthalocyanine photosensitizer received light having a wavelength of 675 nm and the mice that received the Photofrin® II photosensitizer received light having a wavelength of 630 nm. Each tumor received 135 J/cm^2 of radiation. Tumor size was measured every day using calipers. The initial tumor volume was 50±10 mm^3. Tumor volume was calculated according to the hemiellipsoid model by the formula: V=½(4π)/3×(½×(w/2))×h
• complete—no evidence of any tumor mass in any animal; only the scar from the photodynamic therapy was evident. • near complete—evidence of […] in four or five animals; only some tumor mass in one or two animals. • substantial—a significant tumor shrinkage occurred in all animals. In some animals the tumor response was complete, yet in others the response was not complete. • moderate—some tumor shrinkage was evident in some animals. In animals with some tumor shrinkage, scar formation was evident. • slight—some tumor decrease occurred in one or two mice.

Data set [4] deals with Chinese hamster V79-379 lung fibroblasts. Put plainly: Clonogenic cell survival of V79 cells after photodynamic treatment. As to conditions: 0.5 μM, 18 hours, 675 nm red light, VII# preplated data only, XXI* not totally soluble at 0.5 mM. The data set is classed as cell-based. The method, then:
Cells were irradiated at a density of approximately 2×10^6 per 25 cm^2 flask. Immediately after irradiation, the cell monolayer was treated with trypsin, and appropriate aliquots were plated in triplicate to give 100 to 200 colonies in each 10-cm Petri dish. Cell survival was determined by the ability of the cells to form colonies containing at least 50 cells. The response of cells treated with 1 μM AlPcCl and light was compared in each experiment.
Photocytotoxicity of the phthalocyanines compounds I to VI was also assessed by clonogenic assay (Table 1, FIG. 1). In all experiments, 1 μM AlPcCl was included for comparison purposes. From the survival curves (FIG. 1), the fluence reducing the cell survival to 10% (F10) was obtained. The ratio of the F10 for AlPcCl and the F10 for the test compound is recorded in Table 1. Compounds I and II appear to be nearly as efficient photosensitizers as AlPcCl, while compound IV (assayed at half the concentration) was almost twice as efficient as the standard AlPcCl. […] However, in spite of the low efficiency of compound V in inhibiting cell growth, survival measurements were made for this compound, because it was taken up into V79 cells somewhat more efficiently than compounds III and VI.
In order to take differences in cellular uptake into consideration in the assessment of the relative efficiency of these phthalocyanines as photosensitizers of V79 cells, the survival data were replotted against the product of intracellular phthalocyanine concentration and light fluence (FIG. 2). From these curves, the product of intracellular concentration and light fluence reducing survival to 10% (CF10) was obtained, and comparisons of the values for AlPcCl and the test compounds are recorded in Table 1. By this and the other criteria, compound IV appears to be the most efficient photosensitizer. However, when consideration is given to the lesser cell uptake of compound V, it appears to be about as strong a photosensitizer as compound IV.
Using the cell culture methods described above, V79 cells Chinese hamster lung fibroblasts were treated with either 0.5 or 1.0 μM of the phthalocyanines listed in Table 3. About 18 hours thereafter, the cells were irradiated with increasing doses of 675 nm broad band red light from a 500 W tungsten-halogen lamp fitted with a 600 nm high pass filter, to determine the light dosage that would kill 90% of the phthalocyanine treated cells. Where 90% of the cells were not killed, the maximum percent of cells killed were determined, (expressed as % survival) and the related light dosage recorded.

Data set [5] deals with Mouse lymphoma L5178y-R cells. The data set can be described thus: Clonogenic cell survival of PDT-treated LY-R cells. The data set is classed as cell-based. As to conditions: 0.5 μM. The protocol: Mouse lymphoma L5178y-R (hereinafter also referred to as “LY-R”) cells were grown in suspension culture as described in Ramakrishnan N., Oleinick, N. L. Clay, M. E., Homg, M. F., Antunez, A. R., and Evans H. H., Photochem. Photobiol. 50, 373-378, 1989 and Agarwal, M. L., Clay, M. E., Harvey, E. J., Evans, H. H., Antunez, A. R., and Oleinick, N. L., Cancer Res., 51, 5993-5996, 1991.
The cells were used while in exponential growth. Stock solutions of either 0.5 or 1 mM of PcIV, PcXII, PcX, PcXVIII were prepared in dimethylformamide unless otherwise indicated and added to the 10 mL medium at a rate of 1 μL per mL. After allowing 18 hours for uptake of the phthalocyanine into the cells, the flasks containing the cultures were placed on a glass exposure tray above a 500-W tungsten-halogen lamp. The exposure tray was fitted with a 600-nm high-pass filter. Flasks were exposed to various fluences of red light (up to 30 kJ/m^2) at a fluence rate of approximately 74 W/m^2). After irradiation, the cells were collected by centrifugation.
For measurement of clonogenic cell survival, aliquots were plated in medium containing soft agar as described in Ramakrishnan N., Oleinick, N. L. Clay, M. E., Homg, M. F., Antunez, A. R., and Evans H. H., Photochem. Photobiol. 50, 373-378, 1989. The aliquots were plated in sufficient numbers to produce 50-200 colonies. The dishes were kept in an incubator at 37° C. in an atmosphere of 5% CO2 and 95% air for 10-14 days to allow viable cells to form colonies. Colonies were counted by eye. Controls treated with the phthalocyanine alone had plating efficiencies of about […]. The plating efficiencies of the treated cells are normalized to the plating efficiencies of control cells in each experiment. For measurement of the induction of apoptosis, DNA was isolated from the treated and control cells 2 hours after photodynamic therapy, subjected to electrophoresis on 1.5% agarose, stained with ethidium bromide, and visualized by UV transillumination, as described in Agarwal et al. The results are shown in Tables 4, 5 and 6 and in FIG. 3.

Where [6] appears, read: 5 mg/kg in phosphate buffered saline, 135 J/cm^2.

Marks after values point to notes of the source that are not given here.

For the molecule `CN1CCN(CCC[Si](C)(C)O[Si]2(O)n3c4c5ccccc5c3N=C3N=C(N=c5c6ccccc6c(n52)=NC2=NC(=N4)c4ccccc42)c2ccccc23)CC1` (centres unmarked) [Compound XXVIII, HOSiPcOSi(CH3)2(CH2)3NC4H8NCH3], in data set [1] (0.3 μM), the “Fluence, Minimum Demonstrated Condition to Induce Apoptosis” value (shortened to “Fluence, Minimum Demonstrated Condition”) turned out to be 3.0 kJ/m^2 and the “C × F Ld90, Minimum Demonstrated Condition to Induce Apoptosis” value (“C × F Ld90” for short) was found to be 0.9 kJ/m^2. Further, in data set [2] (18 hours), the “Uptake Into V79 Cells, 1 μM” value is on record as 1.2 ± 0.2 n Moles/10^6 cells and the “Uptake Into V79 Cells, 4 μM” value was determined as 11.4 ± 0.05 n Moles/10^6 cells. In addition, the “Uptake Into V79 Cells, 2 μM” value in data set [2] (2 μM, 18 hours) amounted to 3.6 ± 1.0 n Moles/10^6 cells. In data set [2], the “n Moles/10^6 Cells/μM (composite uptake value)” value (shortened to “n Moles/10^6 Cells/μM”) was 1.2* n Moles/10^6 Cells/μM. The “Tumor Responses at 24 hours” value in data set [3] (1 mg/kg in corn oil, 135 J/cm^2, light 24 h after dosing) is “complete”. Further, in data set [3] (1 mg/kg in corn oil, 135 J/cm^2), the “Doubling Time of Initial Tumor Volume after PDT” value turned out to be 24 days. For the same molecule, the “LD 90 (light dosage that kills 90% of cells)” value in data set [4] stood at 1.8 kj/m^2.
On to “chloroaluminum phthalocyanine tetrasulfonate [AlPcTS, reference compound]”, for which, in data set [3] (setting [6]), the “Tumor Responses at 24 hours” value was “substantial” and the “Doubling Time of Initial Tumor Volume after PDT” value is 7 days.
Take `CCN(CCC[Si](C)(C)O[Si]1(O)n2c3c4ccccc4c2N=C2N=C(N=c4c5ccccc5c(n41)=NC1=NC(=N3)c3ccccc31)c1ccccc12)CCN(C)C` (centres unmarked) [Compound X, HOSiPcOSi(CH3)2(CH2)3N(CH2CH3)(CH2)2N(CH3)2]: the “Ld50 (fluence that reduces cell survival to 50%)” value in data set [5] is recorded as 2.38 kJ/m^2. Also, the “Ld90 (fluence that reduces cell survival to 10%)” value in data set [5] was 4.19 kJ/m^2. Besides, the “activity relative to PcXII” value in data set [5] (from LD50/LD90 fluences) came to 44%. Besides, the “normalized plating efficiency, AVG.” value in data set [5] (light dose 0 kJ/m^2) is 100; in data set [5] (light dose 2 kJ/m^2), 71.8; in data set [5] (light dose 3 kJ/m^2) it was 30.1; in data set [5] (light dose 4 kJ/m^2) it was 20.5; in data set [5] (light dose 5 kJ/m^2), 0.43; in data set [5] (light dose 6 kJ/m^2), 0.031. Besides, in data set [5] (light dose 8 kJ/m^2), the “normalized plating efficiency, AVG.” value was 0.00058. For the same molecule, the figures for the “Fluence, Minimum Demonstrated Condition” value in data set [1] (0.5 μM) and in data set [1] (1.0 μM) were 6.0 kJ/m^2 and 3.0 kJ/m^2, respectively. Also, the “C × F Ld90” value in data set [1] (0.5 μM) and in data set [1] (1.0 μM) was 3.0 kJ/m^2 each time. Also, the “Uptake Into V79 Cells, 1 μM” value in data set [2] (18 hours) turned out to be 0.6 ± 0.2 n Moles/10^6 cells. In addition, the “Uptake Into V79 Cells, 4 μM” value in data set [2] (18 hours) was 3.3 ± 1.4 n Moles/10^6 cells. In addition, the “n Moles/10^6 Cells/μM” value in data set [2] worked out at 0.7 n Moles/10^6 Cells/μM. Also, the “LD 90 (light dosage that kills 90% of cells)” value in data set [4] is 7 kj/m^2.
As for `C[Si](C)(CCCCN)O[Si]1(O[Si](C)(C)CCCCN)n2c3c4ccccc4c2N=C2N=C(N=c4c5ccccc5c(n41)=NC1=NC(=N3)c3ccccc31)c1ccccc12` [Compound VII, SiPc[OSi(CH3)2(CH2)4NH2]2], in data set [1] (0.5 μM), the “Fluence, Minimum Demonstrated Condition” value came to 3.0 kJ/m^2 and the “C × F Ld90” value is recorded as 1.5 kJ/m^2. In data set [2] (18 hours), the “Uptake Into V79 Cells, 1 μM” value is 0.2 ± 0.03 n Moles/10^6 cells and the “Uptake Into V79 Cells, 4 μM” value was determined as 1.1 ± 0.5 n Moles/10^6 cells. For the same molecule, in data set [2], the “n Moles/10^6 Cells/μM” value was 0.2 n Moles/10^6 Cells/μM. Further, in data set [4], the “LD 90 (light dosage that kills 90% of cells)” value is listed as 4 kj/m^2.

For the origin of these results see patent publication US8211883B2, “Topical delivery of phthalocyanines” (priority 2004, dated 2012).
